Measured values: ChEMBL document CHEMBL5338705, “Discovery of 1,3,4-oxadiazole derivatives containing a bisamide moiety as a novel class of potential cardioprotective agents” (Eur J Med Chem, 2022)
Activity calls are given as the source filed them. No cut-off for these calls is given here.

What was measured:
H9c2 [1] = experiment: Cytoprotective activity against H2O2-induced oxidative damage in rat H9c2 cells assessed as fold reduction in cell viability at 20 uM preincubated for 24 hrs followed by H2O2 treatment for another 1.5 hrs by MTT assay; type: functional; conditions: time 25.5 hrs
H9c2 [2] = experiment: Cytoprotective activity against H2O2-induced oxidative damage in rat H9c2 cells assessed as cell viability at 20 uM preincubated for 24 hrs followed by H2O2 treatment for another 1.5 hrs by MTT assay (reference value: 32.52 to 44.40%); type: functional; conditions: time 25.5 hrs, read-out: Activity
H9c2 [3] = experiment: Anti-apoptotic activity in H202 induced rat H9c2 cells assessed as increase in caspase 3 level at 20 to 80 uM measured after 1.5 hrs by Western blot analysis; type: functional, cell-based; conditions: dose 20-80 µM
H9c2 [4] = experiment: Antioxidant activity in H2O2-induced oxidative stress in rat H9c2 cells assessed as increase in expression of Nrf2 level at upto 80 uM measured after 1.5 hrs by Western blotting analysis; type: functional, cell-based
H9c2 [5] = experiment: Protection against H2O2-induced cell damage in rat H9c2 cells assessed as recovery of cell death at 100 uM; type: functional, cell-based
H9c2 [6] = experiment: Protection against H2O2-induced cell damage in rat H9c2 cells assessed as recovery of cell shrinkage at 100 uM; type: functional, cell-based
H9c2 [7] = experiment: Downregulation of H2O2 induced ANP level in rat H9c2 cells measured after 1.5 hrs by qRT-PCR analysis; type: functional, cell-based; conditions: dose <= 80.0 µM
H9c2 [8] = experiment: Anti-apoptotic activity in H202 induced rat H9c2 cells assessed as increase in Bax level at 20 to 80 uM measured after 1.5 hrs by Western blot analysis; type: functional, cell-based; conditions: dose 20-80 µM
H9c2 [9] = experiment: Cytotoxicity against rat H9c2 cells at 10 to 100 uM measured after 48 to 72 hrs by MTT assay; type: toxicity, cell-based; conditions: h9c2, 100 µM, dose lower 10 µM, time lower 48 hrs, dose upper 100 µM, time upper 72 hrs
H9c2 [10] = experiment: Anti-apoptotic activity in H202 induced rat H9c2 cells assessed as increase in caspase 9 level at 20 to 80 uM measured after 1.5 hrs by Western blot analysis; type: functional, cell-based; conditions: dose 20-80 µM
H9c2 [11] = experiment: Anti-apoptotic activity in H202 induced rat H9c2 cells assessed as decrease in Bcl2 level at 20 to 80 uM measured after 1.5 hrs by Western blot analysis; type: functional, cell-based; conditions: dose 20-80 µM
H9c2 [12] = experiment: Downregulation of H2O2 induced BNP level in rat H9c2 cells measured after 1.5 hrs by qRT-PCR analysis; type: functional, cell-based; conditions: dose <= 80.0 µM
H9c2 [13] = experiment: Antioxidant activity in H2O2-induced oxidative stress in rat H9c2 cells assessed as increase in expression of NQO1 level at upto 80 uM measured after 1.5 hrs by Western blotting analysis; type: functional, cell-based
H9c2 [14] = experiment: Cytoprotective activity against H2O2-induced oxidative damage in rat H9c2 cells assessed as reduction in cell viability at 100 uM incubated for 24 hrs followed by low concentration of H2O2 treatment and measured after 24 hrs by MTT assay relative to control; type: functional; conditions: time 48 hrs
H9c2 [15] = experiment: Cytoprotective activity against H2O2-induced oxidative damage in rat H9c2 cells assessed as cell viability preincubated for 24 hrs followed by H2O2 treatment for another 1.5 hrs by MTT assay; type: functional, cell-based; conditions: dose 0-80 µM, time 25.5 hrs
H9c2 [16] = experiment: Anti-apoptotic activity in H202 induced rat H9c2 cells assessed as decrease in Bcl2 level at 80 uM measured after 1.5 hrs by Western blot analysis; type: functional, cell-based
H9c2 [17] = experiment: Anti-apoptotic activity in H202 induced rat H9c2 cells assessed as increase in caspase 3 level at 80 uM measured after 1.5 hrs by Western blot analysis; type: functional, cell-based
H9c2 [18] = experiment: Antioxidant activity in H2O2-induced oxidative stress in rat H9c2 cells assessed as increase in expression of NQO1 level at 80 uM measured after 1.5 hrs by Western blotting analysis; type: functional, cell-based
H9c2 [19] = experiment: Cytoprotective activity against H2O2-induced oxidative damage in rat H9c2 cells assessed as cell viability at 80 uM preincubated for 24 hrs followed by H2O2 treatment for another 1.5 hrs by MTT assay; type: functional, cell-based; conditions: time 25.5 hrs
H9c2 [20] = experiment: Antioxidant activity in H2O2-induced oxidative stress in rat H9c2 cells assessed as increase in expression of Nrf2 level at 80 uM measured after 1.5 hrs by Western blotting analysis; type: functional, cell-based
H9c2 [21] = experiment: Downregulation of H2O2 induced ANP level in rat H9c2 cells at 80 uM measured after 1.5 hrs by qRT-PCR analysis; type: functional, cell-based
H9c2 [22] = experiment: Anti-apoptotic activity in H202 induced rat H9c2 cells assessed as increase in caspase 9 level at 80 uM measured after 1.5 hrs by Western blot analysis; type: functional, cell-based
H9c2 [23] = experiment: Downregulation of H2O2 induced BNP level in rat H9c2 cells at 80 uM measured after 1.5 hrs by qRT-PCR analysis; type: functional, cell-based
H9c2 [24] = experiment: Anti-apoptotic activity in H202 induced rat H9c2 cells assessed as increase in Bax level at 80 uM measured after 1.5 hrs by Western blot analysis; type: functional, cell-based

| SMILES | fold change (FC) (H9c2 [1]) | viability at 20 µM (H9c2 [2]) [%] | also measured |
| --- | --- | --- | --- |
| O=C(CSc1nnc(-c2ccccc2)o1)NC(=O)Nc1ccccn1 | 1.79 | 72.5 | – |
| O=C(CSc1nnc(-c2ccccc2)o1)Nc1ccccn1 | 0.97 | 41.4 | – |
| O=C(CSc1nnc(-c2ccccc2Cl)o1)NC(=O)Nc1ccccc1 | 0.98 | 40.9 | – |
| O=C(CSc1nnc(-c2cccc(Cl)c2)o1)NC(=O)Nc1ccccc1 | 1.01 | 42.5 | – |
| Cc1cccc(-c2nnc(SCC(=O)NC(=O)Nc3ccccc3)o2)c1 | 1.11 | 46.7 | – |
| Cc1ccccc1-c1nnc(SCC(=O)NC(=O)Nc2ccccc2)o1 | 1.34 | 56 | – |
| O=C(CSc1nnc(-c2ccc(Cl)cc2)o1)NC(=O)Nc1ccccc1 | 1.23 | 51.5 | – |
| O=C(CSc1nnc(-c2ccccc2)o1)NC(=O)Nc1ccccc1Cl | 1.05 | 34.5 | – |
| O=C(CSc1nnc(-c2ccccc2Cl)o1)NC(=O)Nc1ccccn1 | 0.96 | 42.6 | – |
| O=C(Cn1cc(CSc2nnc(-c3ccc(O)cc3)o2)nn1)NC(=O)Nc1ccccn1 | 0.52 | 18.7 | – |
| O=C(CSc1nnc(-c2ccccc2O)o1)NC(=O)Nc1ccccn1 | 1.48 | 65.7 | – |
| O=C(CSc1nnc(-c2ccc(O)cc2)o1)NC(=O)NN1CCOCC1 | 1.12 | 44.2 | – |
| O=C(CSc1nnc(-c2cccnc2)o1)NC(=O)Nc1ccccn1 | 0.91 | 40.5 | – |
| O=C(CSc1nnc(-c2ccc(O)cc2)o1)NC(=O)Nc1ncccn1 | 1.49 | 59.1 | – |
| O=C(CSc1nnc(-c2ccc(O)cc2)o1)NC(=O)Nc1cccnc1 | 1.64 | 64.8 | – |
| COc1ccccc1NC(=O)NC(=O)CSc1nnc(-c2ccccc2)o1 | 1.43 | 47 | – |
| COc1ccc(NC(=O)CSc2nnc(-c3ccccc3)o2)cc1 | 1.46 | 52.6 | – |
| COc1ccc(NC(=O)CSc2nnc(-c3ccc(O)cc3)o2)cc1 | 1 | 42.9 | – |
| O=C(CSc1nnc(-c2ccncc2)o1)NC(=O)Nc1ccccn1 | 1.02 | 45.3 | – |
| Cc1ccc(-c2nnc(SCC(=O)NC(=O)Nc3ccccc3)o2)cc1 | 1.38 | 57.7 | – |
| O=C(CSc1nnc(-c2ccccn2)o1)NC(=O)Nc1ccccc1 | 0.85 | 35.5 | – |
| CC(C)c1ccc(NC(=O)NC(=O)CSc2nnc(-c3ccccc3)o2)cc1 | 1.18 | 38.9 | – |
| O=C(CSC(=S)N1CCNCC1)NC(=O)Nc1ccccc1 | 1.03 | 41.1 | – |
| COc1ccc(NC(=O)NC(=O)CSc2nnc(-c3ccccc3)o2)cc1 | 2.69 | 88.4 | Activity (H9c2 [3]): Active; Activity (H9c2 [4]): Active; Activity (H9c2 [5]): Active; Activity (H9c2 [6]): Active; Activity (H9c2 [7]): Dose-Dependent Effect; Activity (H9c2 [8]): Active; Activity (H9c2 [9]): Non-Toxic; Activity (H9c2 [10]): Active; Activity (H9c2 [11]): Active; Activity (H9c2 [12]): Dose-Dependent Effect; Activity (H9c2 [13]): Active; Activity (H9c2 [14]): 48%; Activity (H9c2 [15]): Dose-Dependent Effect |
| O=C(CSc1nnc(-c2cccnc2)o1)NC(=O)Nc1ccccc1 | 0.93 | 39.2 | – |

| SMILES | fold change (FC) (H9c2 [1]) | viability at 20 µM (H9c2 [2]) [%] | also measured |
| --- | --- | --- | --- |
| Cc1ccccc1-c1nnc(SCC(=O)NC(=O)Nc2ccccn2)o1 | 1.5 | 66.5 | – |
| O=C(CSc1nnc(-c2ccccc2)o1)Nc1ccccc1 | 1.09 | 46.6 | – |
| COc1cc(NC(=O)NC(=O)CSc2nnc(-c3ccccc3)o2)cc(OC)c1OC | 1.3 | 43 | – |
| COc1ccc(NC(=O)NC(=O)CSc2nnc(-c3ccc(O)cc3)o2)cc1 | 1.68 | 60.5 | – |
| Cc1ccc(-c2nnc(SCC(=O)NC(=O)Nc3ccccn3)o2)cc1 | 1.6 | 70.9 | – |
| COCCCNC(=O)NC(=O)CSc1nnc(-c2ccc(O)cc2)o1 | 1.76 | 69.5 | – |
| O=C(CSc1nnc(-c2ccccc2)o1)NC(=O)Nc1ccc(Cl)cc1 | 1.14 | 37.6 | – |
| O=C(CSc1nnc(-c2ccccc2O)o1)NC(=O)Nc1ccccc1 | 1.45 | 60.7 | – |
| O=C(CSc1nnc(-c2cccc(Cl)c2)o1)NC(=O)Nc1ccccn1 | 1.09 | 48.4 | – |
| O=C(CSc1nnc(-c2ccc(O)cc2)o1)NC(=O)Nc1ccccc1 | 1.71 | 71.7 | – |
| COc1ccc(NC(=O)NC(=O)CSc2nnc(-c3ccccc3)[nH]2)cc1 | 1.69 | 64.4 | – |
| O=C(CSc1nnc(-c2ccc(Cl)cc2)o1)NC(=O)Nc1ccccn1 | 1.24 | 54.9 | – |
| O=C(CSc1nnc(-c2ccccc2)o1)NC(=O)Nc1cccc(Cl)c1 | 1.03 | 34 | – |
| O=C(CSc1nnc(-c2ccccn2)o1)NC(=O)Nc1ccccn1 | 1.22 | 54 | – |
| O=C(CSc1nnc(-c2ccc(O)cc2)o1)NC(=O)Nc1nccs1 | 0.93 | 36.8 | – |
| O=C(CSc1nnc(-c2ccc(O)cc2)o1)Nc1ccccn1 | 1.54 | 55.3 | – |
| COc1cccc(NC(=O)NC(=O)CSc2nnc(-c3ccccc3)o2)c1 | 0.69 | 22.6 | Activity (H9c2 [5]): inactive; Activity (H9c2 [16]): inactive; Activity (H9c2 [17]): inactive; Activity (H9c2 [6]): inactive; Activity (H9c2 [18]): inactive; Activity (H9c2 [19]): inactive; Activity (H9c2 [20]): inactive; Activity (H9c2 [21]): inactive; Activity (H9c2 [22]): inactive; Activity (H9c2 [23]): inactive; Activity (H9c2 [24]): inactive |
| COc1ccc(NC(=O)NC(=O)Cn2cc(CSc3nnc(-c4ccccc4)o3)nn2)cc1 | 0.51 | 18.4 | – |
| Cc1ccc(NC(=O)NC(=O)CSc2nnc(-c3ccccc3)o2)cc1 | 1.67 | 54.8 | – |
| O=C(CSc1nnc(-c2ccc(O)cc2)o1)NC(=O)NN1CCCCC1 | 0.74 | 29.2 | – |
| O=C(CSc1nnc(-c2ccccc2)o1)NC(=O)Nc1ccccc1 | 1.32 | 52.9 | – |
| Cc1cccc(-c2nnc(SCC(=O)NC(=O)Nc3ccccn3)o2)c1 | 1.21 | 53.5 | – |
| O=C(CSc1nnc(-c2ccc(O)cc2)o1)NC(=O)Nc1ccccn1 | 1.92 | 85.2 | – |
| O=C(CSc1nnc(-c2ccncc2)o1)NC(=O)Nc1ccccc1 | 1.16 | 48.5 | – |
